Where two headings read alike, the source gives them in different places.
Legend:
[1] = molecular target: T1, p97 WT (Homo sapiens, UniProt P55072); assay: ATPase activity assay, recombinant p97 WT; assay type: biochemical
[2] = molecular target: T2, p97 A530T (Homo sapiens, UniProt P55072, A530T); assay: ATPase activity assay, recombinant p97 A530T; assay type: biochemical
[3] = molecular target: T1, p97 WT; assay: TR-FRET binding assay
[4] = molecular target: T2, p97 A530T; assay: TR-FRET binding assay; conditions: for increase in apparent Kd for A530T: A530T versus WT
[5] = system: HCT116 873-R and 873-S cells; assay: Cell viability; assay type: cell-based
[6] = system: HCT116 cells engineered with p97 A530T; assay: Cell viability; assay type: cell-based; conditions: homozygous A530T
[7] = molecular target: T3, p97 complexes in HCT116 cells (Homo sapiens, UniProt P55072); assay: Immunoblot of p97 immunoprecipitated from inhibitor-treated cells; assay type: cell-based; conditions: for increase in UFD1/NPL4 binding to p97 relative to control: inhibitor concentrations causing similar CHOP and ATF4 induction
Target sequence in this assay (P55072 2-806 limits assumed, one chain of several): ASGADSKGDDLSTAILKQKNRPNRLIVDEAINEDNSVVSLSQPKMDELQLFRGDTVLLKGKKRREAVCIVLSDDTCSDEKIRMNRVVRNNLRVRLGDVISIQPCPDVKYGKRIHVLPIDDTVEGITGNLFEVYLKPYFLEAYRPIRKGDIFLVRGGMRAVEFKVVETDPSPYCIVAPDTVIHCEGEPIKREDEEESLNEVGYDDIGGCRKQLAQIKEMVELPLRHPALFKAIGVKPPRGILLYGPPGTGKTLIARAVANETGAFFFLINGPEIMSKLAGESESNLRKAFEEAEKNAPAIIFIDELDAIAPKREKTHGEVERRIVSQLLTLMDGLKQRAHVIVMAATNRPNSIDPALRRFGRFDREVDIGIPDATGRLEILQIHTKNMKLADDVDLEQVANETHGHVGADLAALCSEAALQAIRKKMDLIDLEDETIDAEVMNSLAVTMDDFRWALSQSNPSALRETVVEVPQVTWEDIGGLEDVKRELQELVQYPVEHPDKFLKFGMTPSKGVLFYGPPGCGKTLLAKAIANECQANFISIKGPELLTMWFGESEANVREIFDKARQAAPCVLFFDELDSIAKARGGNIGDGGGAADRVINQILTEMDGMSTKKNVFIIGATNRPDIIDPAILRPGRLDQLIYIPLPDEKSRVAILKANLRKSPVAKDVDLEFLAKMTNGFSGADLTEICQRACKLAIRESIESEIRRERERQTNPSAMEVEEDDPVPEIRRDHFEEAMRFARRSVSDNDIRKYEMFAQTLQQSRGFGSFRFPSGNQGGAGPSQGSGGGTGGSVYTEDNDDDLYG

[8] = molecular target: T3, p97 complexes in HCT116 cells; assay: LC-MS/MS analysis of p97 complexes purified from inhibitor-treated cells; assay type: cell-based; conditions: HCT116, 5 µM NMS-873, 6 hours, LC-MS/MS spectrum count
Target sequence in this assay (P55072 whole entry, one chain of several): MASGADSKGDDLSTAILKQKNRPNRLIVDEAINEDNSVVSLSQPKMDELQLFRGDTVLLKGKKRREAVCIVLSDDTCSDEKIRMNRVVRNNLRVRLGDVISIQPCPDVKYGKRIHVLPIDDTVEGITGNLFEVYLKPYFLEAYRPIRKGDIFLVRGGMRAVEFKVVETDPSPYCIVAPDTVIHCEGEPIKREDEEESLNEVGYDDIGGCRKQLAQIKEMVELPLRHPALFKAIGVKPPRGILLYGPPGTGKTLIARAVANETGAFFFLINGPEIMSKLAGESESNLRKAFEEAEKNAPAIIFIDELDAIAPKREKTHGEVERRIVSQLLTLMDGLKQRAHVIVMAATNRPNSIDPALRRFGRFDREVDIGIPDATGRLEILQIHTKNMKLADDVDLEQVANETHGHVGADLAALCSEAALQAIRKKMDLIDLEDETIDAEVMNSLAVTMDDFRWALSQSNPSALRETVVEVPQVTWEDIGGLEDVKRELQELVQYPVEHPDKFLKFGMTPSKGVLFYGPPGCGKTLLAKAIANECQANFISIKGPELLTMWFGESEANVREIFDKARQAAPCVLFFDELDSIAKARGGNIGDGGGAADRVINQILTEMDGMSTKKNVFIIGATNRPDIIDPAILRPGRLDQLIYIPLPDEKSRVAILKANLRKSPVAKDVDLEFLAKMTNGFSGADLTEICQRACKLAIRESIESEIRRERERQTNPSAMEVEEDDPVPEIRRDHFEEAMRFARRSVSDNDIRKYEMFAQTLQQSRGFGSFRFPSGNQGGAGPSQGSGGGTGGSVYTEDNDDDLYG

[9] = system: CHOP, ATF4 and polyubiquitin in HCT116 cells; assay: Immunoblot of biomarkers of p97 inhibition; assay type: cell-based; conditions: 6 hours
[10] = HCT116, 1 hour, concentration dependent, immunoblot
[11] = HCT116, after washout of 5 µM NMS-873 (120 minutes)

T2 sequence (P55072 whole entry A530T): as the sequence (P55072 whole entry, one chain of several) above, with A530T counted along it
T1 sequence (P55072 whole entry): as the sequence (P55072 whole entry, one chain of several) above

## Nc1ncnc2c1ncn2[C@@H]1O[C@H](COP(=O)(O)OP(=O)(O)O)[C@@H](O)[C@H]1O [ADP]
[1]; WT ATPase activity
  fold less sensitive to ADP than ATP-γ-S: 18 fold
[1]; read-out: IC50 ATPase activity, WT p97
  IC50: 4500 nM
[2]; A530T ATPase activity
  fold less sensitive to ADP than ATP-γ-S: 3.7 fold
[2]; read-out: IC50 ATPase activity, A530T p97
  IC50: 24600 nM
[3]; read-out: apparent Kd, WT p97, TR-FRET, non-linear regression
  Kd: 600 nM
[4]
  increase in apparent Kd for A530T: 5- to 6 fold
[4]; read-out: apparent Kd, A530T p97, TR-FRET
  Kd: 3800 nM

## Nc1ncnc2c1ncn2[C@@H]1O[C@H](CO[P@](=O)(O)O[P@](=O)(O)O[P@@](=O)(O)S)[C@@H](O)[C@H]1O [ATP-γ-S]
[1]
  IC50: 247 nM
[2]
  IC50: 6600 nM
[3]
  Kd: 25 nM
[4]
  Kd: 140 nM
  increase in apparent Kd for A530T: 5- to 6 fold

## Cc1cc2c(C(N)=O)cccc2n1-c1nc2c(c(NCc3ccccc3)n1)COCC2 [CB-5083]
[5]
  sensitivity of 873-R compared with 873-S cells: similarly sensitive
[6]
  sensitivity of engineered A530T cells: remained sensitive

## c1ccc(CNc2nc(NCc3ccccc3)c3ccccc3n2)cc1 [DBeQ]
[7]; HCT116, 1 hour
  increase in UFD1/NPL4 binding to p97 relative to control: up to 2.1 fold
[5]
  sensitivity of 873-R compared with 873-S cells: similarly sensitive

## O[C@@H](CS)[C@@H](O)CS [DTT]
[5]
  sensitivity of 873-R compared with 873-S cells: similarly sensitive

## CC1(C)C(N(O)C(=O)Nc2ccc(Cl)cc2)N(c2ccc(Cl)cc2)C(=O)N1CC(=O)N/N=C/C=C/c1ccc([N+](=O)[O-])o1 (stereo not drawn) [EerI, Eeyarestatin I]
[7]; HCT116, 1 hour
  increase in UFD1/NPL4 binding to p97 relative to control: up to 2.1 fold
[5]
  sensitivity of 873-R compared with 873-S cells: similarly sensitive

## Cc1cc(OCc2nnc(SC3CCCC3)n2-c2cccnc2)ccc1-c1ccc(S(C)(=O)=O)cc1 [NMS-873]
[8]
  increase in ubiquitin bound to p97: 15 fold
[7]; [10]
  increase in UFD1 and NPL4 bound to p97: 12- to 15 fold
  increase in p47 bound to p97: 2.5 fold
[7]; [11]
  t1/2 of decrease of NPL4 binding to p97 during recovery: 17 min
  t1/2 of decrease of UFD1 binding to p97 during recovery: 13 min
[9]; NMS-873 2 and 5 µM, CB-5083 0.3 and 2.5 µM
  induction of CHOP, ATF4 and polyubiquitin in 873-R compared with 873-S cells: diminished responses
[9]; HDR cells homozygous for A530T
  induction of CHOP, ATF4 and polyubiquitin in engineered A530T cells: diminished induction

## CC(C)C[C@H](NC(=O)[C@H](Cc1ccccc1)NC(=O)c1cnccn1)B(O)O [bortezomib]
[5]
  sensitivity of 873-R compared with 873-S cells: similarly sensitive

## C[C@H]1CCC/C=C/[C@@H]2C[C@H](O)C[C@H]2[C@H](O)/C=C/C(=O)O1 [brefeldin A]
[5]
  sensitivity of 873-R compared with 873-S cells: similarly sensitive

## CC(C)C[C@H](NC(=O)[C@H](CCc1ccccc1)NC(=O)CN1CCOCC1)C(=O)N[C@@H](Cc1ccccc1)C(=O)N[C@@H](CC(C)C)C(=O)[C@@]1(C)CO1 [carfilzomib]
[5]
  sensitivity of 873-R compared with 873-S cells: similarly sensitive

## NMS-859
[7]; HCT116, 1 hour
  increase in UFD1/NPL4 binding to p97 relative to control: up to 2.1 fold
[5]
  sensitivity of 873-R compared with 873-S cells: similarly sensitive

## tunicamycin
[5]
  sensitivity of 873-R compared with 873-S cells: similarly sensitive

B1: p47: recombinant p97 cofactor protein with N-terminal hexahistidine tag (protein)
chain: MAAERQEALREFVAVTGAEEDRARFFLESAGWDLQIALASFYEDGGDEDIVTISQATPSSVSRGTAPSDNRVTSFRDLIHDQDEDEEEEEGQRFYAGGSERSGQQIVGPPRKKSPNELVDDLFKGAKEHGAVAVERVTKSPGETSKPRPFAGGGYRLGAAPEEESAYVAGEKRQHSSQDVHVVLKLWKSGFSLDNGELRSYQDPSNAQFLESIRRGEVPAELRRLAHGGQVNLDMEDHRDEDFVKPKGAFKAFTGEGQKLGSTAPQVLSTSSPAQQAENEAKASSSILIDESEPTTNIQIRLADGGRLVQKFNHSHRISDIRLFIVDARPAMAATSFILMTTFPNKELADESQTLKEANLLNAVIVQRLT
modifications: left off: His6, N-terminal, state not stated
[1]; WT p97, biphasic response, recovery at 200 nM
  cofactor concentration of maximum inhibition of ATPase activity: 3.1 nM

Source: PMC4841942 (Cell chemical biology, 2016)
